Experimental data taken from patent US11447486B2, “2-amino-benzimidazole derivatives and their use as 5-lipoxygenase and/or prostaglandin E synthase inhibitors” (INSTITUT PASTEUR KOREA, priority 2014, dated 2022).
Read-outs that look alike come from different tables or passages of the source.

How the values were obtained:
human 5-LOX = target: T1, human 5-LOX (Homo sapiens, UniProt P09917); test: 5-LOX enzyme activity, fluorescence method (5-HPETE, H2DCFDA); format: biochemical; conditions: read-out: 5-LO (IC50)
T1 construct: purchased Cayman 60402; host or cells: insect cells (lysate)
T1 sequence (P09917 1-674): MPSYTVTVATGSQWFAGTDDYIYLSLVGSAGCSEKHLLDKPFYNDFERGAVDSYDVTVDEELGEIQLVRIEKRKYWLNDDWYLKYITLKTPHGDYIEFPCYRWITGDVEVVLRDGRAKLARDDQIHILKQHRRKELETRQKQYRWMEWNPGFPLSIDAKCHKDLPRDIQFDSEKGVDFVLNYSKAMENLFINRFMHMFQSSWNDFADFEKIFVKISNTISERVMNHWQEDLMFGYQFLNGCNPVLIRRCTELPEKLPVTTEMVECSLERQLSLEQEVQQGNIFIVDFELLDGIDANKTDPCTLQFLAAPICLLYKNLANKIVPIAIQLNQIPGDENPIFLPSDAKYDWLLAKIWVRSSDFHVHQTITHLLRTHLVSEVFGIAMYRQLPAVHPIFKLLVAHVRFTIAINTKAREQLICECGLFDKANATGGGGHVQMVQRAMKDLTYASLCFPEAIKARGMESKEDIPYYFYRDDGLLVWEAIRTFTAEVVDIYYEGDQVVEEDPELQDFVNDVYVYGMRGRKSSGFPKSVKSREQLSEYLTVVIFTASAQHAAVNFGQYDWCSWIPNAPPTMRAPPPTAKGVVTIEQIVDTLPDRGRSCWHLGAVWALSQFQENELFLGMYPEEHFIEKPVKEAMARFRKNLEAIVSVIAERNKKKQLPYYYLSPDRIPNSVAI
How it was run: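 Compound (0.5 nM to 10 uM) pre-incubated 5 min with enzyme; reaction started with ATP (100 uM final) and arachidonic acid (3 uM final). All steps at room temperature, fluorescence read-out.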

[1] = test system: Rat basophilic leukemia (RBL) cells; test: LTB4 secretion assay in RBL (rat basophilic leukemia cells); format: cell-based
How it was run: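 Cells seeded 2×10^4/well the day before, then pre-incubated 15 min at 37 °C in EMEM/0.5% FBS with compound (5 nM to 100 uM). Stimulation with 2.5 uM arachidonic acid plus 5 uM A23187 (final) for 10 min at 37 °C; LTB4 in supernatant quantified by EIA.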

Rat whole blood (RWB) = test: LTB4 secretion assay in RWB (rat whole blood); format: cell-based; conditions: Rattus norvegicus
Procedure: Rat blood was drawn from caudal vena cava from male Sprague Dawley rat (6-9 weeks old) in vacuette coated with sodium heparin (Greiner bio-one, Cat #455051). The blood was pooled and diluted with RPMI (WelGENE, Cat #LM 011-05) to 1:1. The diluted blood was aliquoted into 96 well plate (200 ul per well) and compounds were added in dose response to a desired concentration ranging from 2.5 nM to 50 uM. After 15 min of pre-incubation at 37° C., calcium ionophore (A23187) was added to the final concentration of 10 uM. After 10 min of further incubation at 37° C., the LTB4 production was stopped by diluting the reaction mixture with ice cold PBS (1:4 dilutions). Cells were removed by centrifugation at 1000×g, 4° C. for 10 min, and the supernatant was transferred and then the quantification of LTB4 was done with Leukotriene B4 EIA kit (Cayman, Cat #520111) as instructed.

Row | Compound | IC50 (human 5-LOX) [µM] | EC50 ([1]; Rattus norvegicus, RBL) [µM] | EC50 (Rat whole blood (RWB)) [µM] | EC50 [1] [µM]
1 | Nc1ccc2nc(NCc3ccc(C(=O)c4ccc(Cl)cc4)cc3)[nH]c2c1 [Compound 130] | < 1 | < 10 | < 10 | –
2 | Cn1c(NCc2ccc(Oc3ccc(Cl)cn3)cn2)nc2ccc(NC3COC3)cc21 [Compound 300] | < 1 | < 10 | 10 to 20 | –
3 | CN(C)c1nc2ccc(N3CCC(Oc4ccc(OC(F)(F)F)cc4)C3)cc2[nH]1 (centres unmarked) [Compound 105] | < 1 | < 10 | > 20 | –
4 | Cn1c(NCc2ccc(Oc3nc4ccccc4n3C)cc2)nc2ccc(NC3COC3)cc21 [Compound 357] | < 1 | < 10 | 10 to 20 | –
5 | Nc1ccc2[nH]c(NCc3ccc(N4CCC(OCc5ccc(Cl)cc5)CC4)cc3)nc2c1 [Compound 6] | < 1 | – | > 20 | –
6 | CC(C)(Nc1nc2cc(N)ccc2[nH]1)c1ccc(Oc2ccc(Cl)cc2)cc1 [Compound 20] | < 1 | – | > 20 | –
7 | Fc1ccc(Nc2ccc3[nH]c(NCc4ccc(Oc5ccc(Cl)cc5)cc4)nc3c2)cn1 [Compound 23] | 1 to 10 | – | 10 to 20 | –
8 | Nc1ccc2[nH]c(NCc3ccc(N4CCC(COc5ccc(Cl)cc5)CC4)cc3)nc2c1 [Compound 5] | < 1 | – | 10 to 20 | –
9 | Nc1ccc2[nH]c(NCc3ccc(Oc4ccc(Cl)cc4)cc3Cl)nc2c1 [Compound 9] | < 1 | – | 10 to 20 | –
10 | Nc1ccc2[nH]c(NCc3ccc4oc(-c5ccc(OC(F)(F)F)cc5)nc4c3)nc2c1 [Compound 1] | < 1 | – | > 20 | –
11 | Clc1ccc(Oc2ccc(CNc3nc4cc(Nc5cccnc5)ccc4[nH]3)cc2)cc1 [Compound 16] | < 1 | – | > 20 | –
12 | CCOC(=O)c1c[nH]nc1Nc1ccc2[nH]c(NCc3ccc(Oc4ccc(Cl)cc4)cc3)nc2c1 [Compound 13] | 1 to 10 | – | > 20 | –
13 | Nc1ccc2[nH]c(NCc3ccc(Oc4ccc(Cl)cc4)cc3F)nc2c1 [Compound 10] | < 1 | – | 10 to 20 | –
14 | Nc1ccc2nc(N)n(CCc3ccc(Oc4ccc(Cl)cc4)cc3)c2c1 [Compound 15] | < 1 | – | > 20 | –
15 | Nc1ccc2[nH]c(NCCc3ccc(Oc4ccc(Cl)cc4)cc3)nc2c1 [Compound 11] | < 1 | – | < 10 | –
16 | Cc1cc(Nc2ccc3[nH]c(NCc4ccc(Oc5ccc(Cl)cc5)cc4)nc3c2)n[nH]1 [Compound 8] | < 1 | – | > 20 | –
17 | Nc1ccc2[nH]c(NCc3ccc(OCc4ccc(Cl)cc4)cc3)nc2c1 [Compound 4] | < 1 | – | > 20 | –
18 | Nc1ccc2[nH]c(NCc3ccc(N4CCOCC4)cc3)nc2c1 [Compound 7] | < 1 | – | > 20 | –
19 | CCOC(=O)c1c[nH]nc1Nc1ccc2nc(N)n(CCOc3ccc(OC(F)(F)F)cc3)c2c1 [Compound 22] | > 10 | – | > 20 | –
20 | CN(C)c1nc2cc(N3CCC(c4nc5ccc(Cl)cc5o4)C3)ccc2[nH]1 (centres unmarked) [Compound 236] | < 1 | < 10 | – | –
21 | Cn1c(NCc2ccc(Oc3ccc(Cl)cn3)cc2)nc2ccc(NC(C)(C)C(=O)O)cc21 [Compound 326] | < 1 | < 10 | – | –
22 | Nc1ccc2nc(N)n(CCc3ccc(Oc4ccc(Cl)cn4)cc3)c2c1 [Compound 244] | < 1 | < 10 | – | –
23 | Nc1ccc2nc(N)n(Cc3ccc(OCc4ccc(Cl)cn4)cc3)c2c1 [Compound 254] | < 1 | < 10 | – | –
24 | Cn1c(NCc2ccc(Oc3cnc(Cl)nc3)cc2)nc2ccc(N)cc21 [Compound 340] | < 1 | < 10 | – | –
25 | FC(F)(F)Oc1ccc(OCCn2c(N3CCCC3)nc3cc(N4CCC4)ccc32)cc1 [Compound 85] | 1 to 10 | > 20 | – | –
26 | Cc1cc(CNc2nc3ccc(N)cc3n2C)cc(C)c1Oc1ncc(Cl)cn1 [Compound 411] | < 1 | > 20 | – | –
27 | Nc1ccc2[nH]c(N3CCC(C(=O)Nc4ccc(OC(F)(F)F)cc4)C3)nc2c1 (centres unmarked) [Compound 64] | < 1 | > 20 | – | –

Row | Compound | IC50 (human 5-LOX) [µM] | EC50 ([1]; Rattus norvegicus, RBL) [µM] | EC50 (Rat whole blood (RWB)) [µM] | EC50 [1] [µM]
28 | NC(=O)CNc1nc2ccc(N)cc2n1Cc1ccc(Oc2ccc(Cl)cc2)cc1 [Compound 217] | < 1 | < 10 | – | –
29 | Nc1ccc2nc(NCC(=O)O)n(Cc3ccc(Oc4ccc(Cl)cc4)cc3)c2c1 [Compound 225] | < 1 | > 20 | – | –
30 | CC(c1ccc(Oc2ccc(Cl)cn2)cc1)n1c(N)nc2ccc(N)cc21 (centres unmarked) [Compound 247] | < 1 | < 10 | – | –
31 | Nc1ccc2nc(N)n(Cc3ccc(Oc4ccc(Cl)cn4)c(F)c3)c2c1 [Compound 248] | < 1 | < 10 | – | –
32 | Cn1c(NCc2ccc(Oc3ncc(Cl)cn3)c(Cl)c2)nc2ccc(N)cc21 [Compound 391] | < 1 | < 10 | – | –
33 | CN(C)C(=O)c1cnc(Oc2ccc(CNc3nc4ccc(N)cc4n3C)cc2)nc1 [Compound 456] | < 1 | > 20 | – | –
34 | Cc1cc(Nc2cc(Cl)c3nc(NCc4ccc(Oc5ncc(Cl)cn5)cc4)n(C)c3c2)n[nH]1 [Compound 556] | < 1 | < 10 | – | –
35 | Cn1c(NCc2ccc(Oc3ncc(Cl)cn3)cc2)nc2ccc(NC3CN(C(=N)N)C3)cc21 [Compound 443] | < 1 | > 20 | – | –
36 | CN(C)c1nc2ccc(NCc3ccc(N(Cc4ncc[nH]4)c4ccc(F)cc4)cc3)cc2[nH]1 [Compound 216] | < 1 | < 10 | – | –
37 | Cc1cc(Nc2ccc3nc(NCc4ccc(Oc5ncc(Cl)cn5)cc4)[nH]c3c2)n[nH]1 [Compound 484] | < 1 | – | – | > 20
38 | CCC(Nc1nc2ccc(N)cc2n1C)c1ccc(Oc2ccc(Cl)cn2)cc1 (centres unmarked) [Compound 274] | < 1 | < 10 | – | –
39 | Cn1c(NCc2ccc(Oc3ncc(Cl)c4ccccc34)cc2)nc2ccc(NC3COC3)cc21 [Compound 400] | < 1 | < 10 | – | –
40 | Nc1ccc2c(c1)nc(N1CCCC1)n2CCc1ccc(F)cc1 [Compound 50] | 1 to 10 | 10 to 20 | – | –
41 | Cn1c(NCc2ccc(Oc3ncc(OC(F)(F)F)cn3)cc2)nc2ccc(N)cc21 [Compound 410] | < 1 | < 10 | – | –
42 | Nc1ccc2[nH]c(NCc3ccc(N4CCC(Oc5ccc(Cl)cc5)C4)cc3)nc2c1 (centres unmarked) [Compound 3] | < 1 | – | > 20 | –
43 | Cc1cc(Nc2ccc3nc(NC4(c5ccc(Oc6ncc(Cl)cn6)cc5)CC4)n(C)c3c2)n[nH]1 [Compound 478] | < 1 | < 10 | – | –
44 | O=C(NC1CC1)c1c[nH]nc1Nc1ccc2[nH]c(NCc3ccc(Oc4ccc(Cl)cc4)cc3)nc2c1 [Compound 12] | < 1 | – | < 10 | –
45 | CN(C)c1nc2cc(N3CCCC(Oc4ccc(OC(F)(F)F)cc4)C3)ccc2[nH]1 (centres unmarked) [Compound 183] | < 1 | > 20 | – | –
46 | Cn1c(NCc2ccc(Oc3ccc(Cl)cc3)cc2)nc2ccc(NCC#N)cc21 [Compound 171] | < 1 | > 20 | – | –
47 | Cn1c(NCc2ccc(Oc3ccnc4c(Cl)cccc34)cc2)nc2ccc(NC3COC3)cc21 [Compound 388] | < 1 | 10 to 20 | – | –
48 | Nc1ccc2nc(N)n(Cc3ccc(Oc4ccc(Cl)cc4)nc3)c2c1 [Compound 240] | < 1 | < 10 | – | –
49 | COc1ccc(Oc2ccc(CNc3nc4ccc(N)cc4n3C)cc2)nc1 [Compound 330] | < 1 | < 10 | – | –
50 | Cn1nccc1-c1ccc(CNc2nc3cc(NC4COC4)ccc3[nH]2)cc1 [Compound 201] | < 1 | > 20 | – | –
51 | Cn1c(NCc2ccc(Oc3ncc(Cl)cn3)cc2)nc2ccc(NCc3ncccn3)cc21 [Compound 365] | < 1 | < 10 | – | –
52 | Cn1c(NCc2ccc(Oc3ncc(Cl)cn3)cc2)nc2ccc(NC3C[S+]([O-])C3)cc21 (centres unmarked) [Compound 386] | 1 to 10 | > 20 | – | –
53 | Nc1ccc2nc(NCCC(F)(F)F)n(Cc3ccc(Oc4ccc(Cl)cc4)cc3)c2c1 [Compound 264] | < 1 | < 10 | – | –
